According to US12495801B2, “Bacillus subtilis JCK-1398 strain inducing resistance in various plants, and composition and method for controlling pine wilt disease by using same” (Republic of Korea (National institute of forest science), priority 2020, dated 2025):

Tests used:
Type in all cases: in vivo
[1] = test system: Xanthomonas euvesicatoria; experiment: Control effect against bacterial spot on chili pepper plants; settings: control agrochemical, 1,000-fold diluted solution
Procedure: To 500-fold and 5,000-fold diluted solutions of a spray-dried powder of the JCK-1398 strain prepared by the same method as in Example 8 were added the surfactant Tween® 20 (250 μg/ml), and then 8- to 9-leaf stage chili pepper plants (Hungnong Seed, Bultap chili pepper) were treated with the resultant solutions at 20 ml per pot by soil drenching and foliar spraying. Each sample was applied 4 days before inoculation with Xanthomonas euvesicatoria inoculum. As for a control group, the synthetic agrochemical pesticides Sungbocycline wettable powder (oxytetracycline, SUNGBO Chemicals) and Ilpum wettable powder (oxolinic acid 20% WP, Dongbang Agro) each were applied at a predetermined amount (1,000-fold diluted solution), and as for an untreated group, only Tween® 20 (250 μg/ml) was applied in the same manner without chemical agents.
Then, Xanthomonas euvesicatoria was subjected to static culture in TSA at 30° C. for about 48 hours, and then the cells were harvested using 2 ml of sterile water. The inoculum was prepared by diluting the harvested Xanthomonas euvesicatoria to an optical density value of 0.1 at 600 nm through a UV spectrometer. […]
Each treatment was repeated three times, and each experiment was repeated twice. The disease severity was determined using an index of 0 to 6 according to Abbasi, and thus the severity of bacterial spot formed on chili pepper leaves was investigated. […]

[2] = test system: Bursaphelenchus xylophilus; experiment: Pine wilt disease field tests, Pinus densiflora adult trees aged 15 years (Example 9); settings: for Disease severity (%): adult trees, JCK-1398 = 50-fold diluted spray-dried powder foliar spray, EB = A-Pharm trunk injection; for Control value (%): foliar spray, EB by trunk injection
Procedure: Based on the above results, the field test was additionally performed using Pinus densiflora adult trees aged 15 years (root diameter: 8-11 cm, height: 6-8 m) in order to investigate the control effect of the Bacillus subtilis JCK-1398 strain against pine wilt disease in adult trees. The field test was performed twice in 2018 (first field test) and 2019 (second field test). In the first field test, a spray-dried powder of a culture of the JCK-1398 strain (prepared by the same method as in Example 8) was used, and in the second field test, a spray-dried powder of a culture of the JCK-1398 strain was formulated into JCK-1398 20% SC (emulsion) before use. The JCK-1398 20% SC formulation was formulated with a composition of a JCK-1398 spray-dried powder (20.0%), CR-NF 135B (4.5%), xanthan gum (0.03%), a defoamer (0.1%), and water (75.37%).
The spray-dried powder of the culture of the JCK-1398 strain and the JCK-1398 20% SC formulation were diluted 50-fold and 2000-fold, respectively, in an aqueous solution containing 250 μg/ml Tween® 20, and then placed in a sprayer, and each pine tree was foliar-sprayed with about 1 L of each diluted solution. The treatment by foliar spraying was performed twice at an interval of 1 month. One week after each second treatment, each pine tree was inoculated, by trunk injection, with Bursaphelenchus xylophilus at 20,000 nematodes in the first field test and at 10,000 nematodes in the second field test. For a control group, A-Pharm (emamectin benzoate 2.15%, emulsion, Syngenta) was applied at 1 ml per diameter at breast by trunk injection, and the A-Pharm was applied once 1 week before the inoculation with Bursaphelenchus xylophilus. The untreated group was treated with only 250 μg/ml Tween@ 20 without chemical agents in the same manner. The results are shown in FIGS. 7A to 7C and Tables 13 and 14.

[3] = test system: Bursaphelenchus xylophilus; experiment: Pine wilt disease control by culture, culture filtrate and cell fraction (Example 6); settings: samples at OD 0.8, 5 ml foliar spray; EB 20 mg/ml by trunk injection
Procedure: The JCK-1398 strain was cultured by the same method as in Example 4-1 and adjusted to an optical density value of 0.8.
The culture of the JCK-1398 strain was separated into a culture filtrate and a cell fraction by centrifugation (1,300 rpm, 15 min). The precipitated cell fraction was suspended by addition of the same volume of phosphate-buffered saline used before centrifugation. Each pine tree was sufficiently pre-treated with 5 ml of Tween® 20 (250 μg/ml) and then dried for 2 hours, so as to enable each sample (a culture, a culture filtrate, and a cell fraction) to be well adsorbed into leaves. Then, each of the culture, culture filtrate, and cell fraction was dissolved in an aqueous solution containing Tween® 20 (250 μg/ml) to an optical density value of 0.8, and then placed in a fine sprayer and each pine tree was foliar-sprayed with 5 ml of each sample. The nematicidal substance emamectin benzoate as a control group was dissolved in an aqueous solution containing 10% methanol to 20 mg/ml, followed by trunk injection.

[4] = test system: Bursaphelenchus xylophilus; experiment: Pine wilt disease seedling test of aerial spraying formulations (Example 11); settings: EB control group; 40 days after inoculation
Procedure: In order to investigate the control effects of the Bacillus subtilis JCK-1398 strain against pine wilt disease through aerial spraying in adult trees, a novel formulation was prepared. The JCK-1398 10% SC formulation was formulated with a composition of a spray-dried powder of JCK-1398 (10.0%), CR-NF 135B (3.0%), xanthan gum (0.01%), a defoamer (0.1%), propylene glycol (5.0%), sodium benzoate (0.2%), and water (81.69%).
The JCK-1398 10% SC formulation and the JCK-1398 20% SC formulation (existing formulation, Example 9) each were prepared into 10-fold, 100-fold, and 500-fold diluted solutions, and each pine tree aged 3 years was foliar-sprayed with 100 μl ( 1/50 of the existing treatment amount) of each of the diluted solutions twice at an interval of 7 days, 2 weeks and 1 week before inoculation. Last, the inoculation with Bursaphelenchus xylophilus was performed 7 days after the second treatment with the diluted solution by the same method as in Example 4-4, and the degree of wilting was determined 40 days after the inoculation with Bursaphelenchus xylophilus.

With `CCn1cc(C(=O)O)c(=O)c2cc3c(cc21)OCO3` [Oxolinic acid, oxolinic acid] as the molecule, how does the “Control value (%)” value ([1]; Folia spraying) read?
The value was 27.1%.

Which “Control value (%)” value ([1]; Soil drenching) does the source give for `CN(C)[C@@H]1C(O)=C(C(N)=O)C(=O)[C@@]2(O)C(O)=C3C(=O)c4c(O)cccc4[C@@](C)(O)[C@H]3[C@H](O)[C@@H]12` [Oxytetracyclin, oxytetracycline] here?
Its value is 20.8%.

emamectin benzoate [EB] was tested. Which “Disease severity (%)” value ([2]; 1 Month after inoculation) did it give?
Its value is 0%.

What about the “Disease severity (%)” value ([2]; 2 Months after inoculation) of the same molecule?
The value was 1%.

What about the “Disease severity (%)” value ([2]; 3 Months after inoculation) of the same molecule?
Its value is 2.5%.

And the “Disease severity (%)” value ([2]; 4 Months after inoculation)?
Its value is 7.5%.

And the “Disease severity (%)” value ([2]; 5 Months after inoculation)?
Its value is 7.5%.

And the “Disease severity (%)” value ([2]; 6 Months after inoculation)?
The value was 10%.

What about the “Control value (%)” value ([2]; 2018-Year field test, powder 50-fold diluted, 20,000 nematodes) of the same molecule?
Its value is 86.2%.

And the “Control value (%)” value ([2]; 2019-Year field test, 20% SC 2000-fold diluted, 10,000 nematodes)?
Its value is 75%.

And the “Control value (%)” value [3]?
Its value is 97.0%.

What about the “Control value (%)” value [4] of the same molecule?
Its value is 100.0%.
